In general, Ki refers to the dissociation constant of the complex between target and ligand, obtained from inhibition or displacement.

Calls of active or inactive are those of the source. The calls are words filed in the database; no cut-off is given here.

The text below walks through data of ChEMBL document CHEMBL4665657, “2-Phenyl-8-(1-phenylallyl)-chromenone compounds have a pan-PPAR modulator pharmacophore” (Bioorg Med Chem, 2019).

Assay [1] has as its system BMMSC. Kind of assay: Induction of adipogenesis in human BMMSC cells assessed as increase in adiponectin secretion at 10 uM in presence of pioglitazone incubated for 5 days by ELISA. As to conditions: time 5.0 day. In kind it is functional, cell-based. (ELISA stands for enzyme-linked immunosorbent assay.)
Assay [2] addresses T1, Peroxisome proliferator-activated receptor alpha (Homo sapiens, UniProt Q07869).
T1 sequence (Q07869 whole entry): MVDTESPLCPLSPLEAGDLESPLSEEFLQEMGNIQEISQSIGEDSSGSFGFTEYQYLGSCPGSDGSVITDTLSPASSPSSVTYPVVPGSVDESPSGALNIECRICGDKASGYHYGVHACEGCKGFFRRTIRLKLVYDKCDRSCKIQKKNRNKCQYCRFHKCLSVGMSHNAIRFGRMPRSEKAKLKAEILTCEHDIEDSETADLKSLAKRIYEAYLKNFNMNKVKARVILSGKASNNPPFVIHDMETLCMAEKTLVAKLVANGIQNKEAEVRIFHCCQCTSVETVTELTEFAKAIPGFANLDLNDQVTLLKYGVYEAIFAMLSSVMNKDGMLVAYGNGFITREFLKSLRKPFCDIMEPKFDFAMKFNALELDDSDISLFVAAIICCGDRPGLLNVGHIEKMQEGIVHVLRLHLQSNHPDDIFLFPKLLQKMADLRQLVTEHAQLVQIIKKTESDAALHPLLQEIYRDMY
Kind of assay: Binding affinity to PPARalpha (unknown origin) by TR-FRET assay. (In general: Time-resolved FRET reads energy transfer from a long-lived donor to a nearby acceptor.)

Assay [3] addresses T2, Oxysterols receptor LXR-alpha (Homo sapiens) (UniProt Q13133).
T2 sequence (whole entry): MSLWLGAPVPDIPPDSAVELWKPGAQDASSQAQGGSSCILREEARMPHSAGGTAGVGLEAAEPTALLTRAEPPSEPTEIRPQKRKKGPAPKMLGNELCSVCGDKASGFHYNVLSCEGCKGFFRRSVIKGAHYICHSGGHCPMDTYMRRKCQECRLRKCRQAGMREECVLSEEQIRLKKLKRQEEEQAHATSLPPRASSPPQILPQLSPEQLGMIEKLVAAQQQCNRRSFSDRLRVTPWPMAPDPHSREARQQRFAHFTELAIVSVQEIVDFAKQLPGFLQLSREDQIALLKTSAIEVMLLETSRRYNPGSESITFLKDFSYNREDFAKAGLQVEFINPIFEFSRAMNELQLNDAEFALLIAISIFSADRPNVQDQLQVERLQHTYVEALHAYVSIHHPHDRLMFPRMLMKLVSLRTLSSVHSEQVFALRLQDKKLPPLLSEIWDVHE
The experiment in a line: Transactivation of LXRalpha (unknown origin) by TR-FRET assay.

Assay [4] deals with BMMSC. Kind of assay: Induction of adipogenesis in human BMMSC cells assessed as increase in adiponectin secretion at 10 uM in presence of GW501516 incubated for 5 days by ELISA. In kind it is functional, cell-based. As to conditions: time 5.0 day.
Assay [5] has as its system BMMSC. The experiment in a line: Induction of adipogenesis in human BMMSC cells assessed as increase in ACOX1 mRNA at 10 uM incubated for 3 days by qRT-PCR analysis. In kind it is functional, cell-based. Conditions: time 3.0 day. On the technique in general: Real-time PCR tracks product formation cycle by cycle.
For assay [6], the system named is BMMSC. The experiment in a line: Induction of adipogenesis in human BMMSC cells assessed as increase in ACACB mRNA at 10 uM incubated for 3 days by qRT-PCR analysis. Conditions: time 3.0 day. In kind it is functional, cell-based.
Assay [7] deals with BMMSC. The experiment in a line: Induction of adipogenesis in human BMMSC cells assessed as increase in adiponectin mRNA at 10 uM incubated for 3 days by qRT-PCR analysis. As to conditions: time 3.0 day. In kind it is functional, cell-based.
Assay [8] addresses T3, Oxysterols receptor LXR-beta (Homo sapiens) (UniProt P55055).
T3 sequence (whole entry): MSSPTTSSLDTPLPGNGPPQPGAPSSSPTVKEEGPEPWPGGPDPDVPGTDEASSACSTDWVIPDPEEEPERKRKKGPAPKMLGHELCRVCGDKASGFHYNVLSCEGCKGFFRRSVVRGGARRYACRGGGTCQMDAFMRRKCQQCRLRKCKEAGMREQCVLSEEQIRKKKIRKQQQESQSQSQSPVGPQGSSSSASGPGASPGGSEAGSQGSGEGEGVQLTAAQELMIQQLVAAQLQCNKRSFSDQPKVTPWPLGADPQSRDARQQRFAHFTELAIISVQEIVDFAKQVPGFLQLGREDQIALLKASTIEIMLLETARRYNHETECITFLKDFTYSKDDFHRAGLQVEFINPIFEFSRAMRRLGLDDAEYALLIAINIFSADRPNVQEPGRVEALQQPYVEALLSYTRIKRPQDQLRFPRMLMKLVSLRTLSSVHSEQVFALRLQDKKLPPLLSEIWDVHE
Kind of assay: Transactivation of LXRbeta (unknown origin) by TR-FRET assay.

Assay [9] has as its system BMMSC. Kind of assay: Induction of adipogenesis in human BMMSC cells assessed as increase in adiponectin secretion at 10 uM in presence of WY14643 incubated for 5 days by ELISA. Conditions: time 5.0 day. In kind it is functional, cell-based.
The test system of assay [10] is BMMSC. The experiment in a line: Induction of adipogenesis in human BMMSC cells assessed as increase in HMGCS2 mRNA at 10 uM incubated for 3 days by qRT-PCR analysis. In kind it is functional, cell-based. As to conditions: time 3.0 day.

`C=CC(c1ccccc1)c1c(O)cc(O)c2c(=O)cc(-c3ccccc3)oc12` (stereo not given): the outcome in the assay on BMMSC [1], in the assay on BMMSC [4], with BMMSC [5], in the assay on BMMSC [6], in the assay on BMMSC [7] and in the assay with BMMSC [9] was Active. In the assay on BMMSC [10], the outcome was Active. In assay [2], the Ki was 960 nM. Further, the outcome in assay [3] and in assay [8] was inactive.
